In the supplement of paper PMC10331698:
± gives the standard deviation of the averaged measurements.

Experiments:
Test in all cases: level (log10 ratio to DMSO vehicle control); higher = higher biomarker level / cell amount than vehicle control
[1] = compound: O=C(O)C(F)(F)OC(F)(F)C(F)(F)OC(F)(F)F [Perfluoro-3,6-dioxaheptanoic acid]; conditions: in DMSO
Method: (§1)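 BioMAP Diversity Plus panel of 12 human primary cell co-culture systems (3C, 4H, LPS, SAg, BT, BF4T, BE3C, CASM3C, HDF3CGF, KF3CT, MyoF, Mphg). Compounds were added 1 h before stimulation and left for 24 h (MyoF 48 h; BT 72 h for soluble read-outs or 6 d for IgG). Biomarkers were read by ELISA, cytotoxicity by SRB, PBMC viability and proliferation by Alamar Blue. Each well value was divided by the mean of 8 DMSO control wells on the same plate and log10 transformed; duplicate blinded samples were tested at 4 concentrations.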

[2] = compound: O=C(O)C(F)(F)C(F)(F)C(F)F [4H-Perfluorobutanoic acid]; conditions: in DMSO
Method: as §1

Perfluoroheptanoic acid = compound: O=C(O)C(F)(F)C(F)(F)C(F)(F)C(F)(F)C(F)(F)C(F)(F)F [Perfluoroheptanoic acid]; conditions: in DMSO
Method: as §1

[3] = compound: FC(F)C(F)(F)COCC1CO1 [((2,2,3,3-Tetrafluoropropoxy)methyl)oxirane]; conditions: in DMSO
Method: as §1

[4] = compound: NCC(F)(F)C(F)(F)C(F)(F)C(F)(F)C(F)(F)C(F)(F)C(F)(F)F [1H,1H-Perfluorooctylamine]; conditions: in DMSO
Method: as §1

[5] = compound: OCCCC(F)(F)C(F)(F)C(F)(F)C(F)(F)C(F)(F)C(F)(F)C(F)(F)F [7:3 Fluorotelomer alcohol]; conditions: 6700 nM; in DMSO
Method: as §1

Perfluorodecanoic acid = compound: O=C(O)C(F)(F)C(F)(F)C(F)(F)C(F)(F)C(F)(F)C(F)(F)C(F)(F)C(F)(F)C(F)(F)F [Perfluorodecanoic acid]; conditions: in DMSO
Method: as §1

Test System	level (log10) ([1]; 6700 nM)	level (log10) ([1]; 20000 nM)	level (log10) ([1]; 60000 nM)	level (log10) ([2]; 6700 nM)	level (log10) ([2]; 20000 nM)	level (log10) ([2]; 60000 nM)	level (log10) (Perfluoroheptanoic acid; 6700 nM)	level (log10) (Perfluoroheptanoic acid; 20000 nM)	level (log10) (Perfluoroheptanoic acid; 60000 nM)	level (log10) ([3]; 6700 nM)	level (log10) ([3]; 20000 nM)	level (log10) ([3]; 60000 nM)	level (log10) ([4]; 6700 nM)	level (log10) ([4]; 20000 nM)	level (log10) ([4]; 60000 nM)	level (log10) [5]	level (log10) (Perfluorodecanoic acid; 6700 nM)	level (log10) (Perfluorodecanoic acid; 20000 nM)
BF4T:CD54/ICAM-1	0.0115 ± 0.005	-0.009 ± 0.0028	-0.012 ± 0.0071	0.002 ± 0.0085	-0.0025 ± 0.032	0.0075 ± 0.032	-0.022 ± 0.0071	-0.011 ± 0.0085	0.004 ± 0.0071	-0.005 ± 0.0099	-0.0065 ± 0.0064	-0.002 ± 0.0057	0.0025 ± 0.0021	-0.0045 ± 0.00071	0.0075 ± 0.0021	-0.0065 ± 0.022	-0.0305 ± 0.0064	-0.181 ± 0.011
BE3C:CXCL11/I-TAC	0.011 ± 0.023	0.008 ± 0.0014	0.012 ± 0.02	-0.0015 ± 0.0064	0.008 ± 0.014	0.031 ± 0.011	0.0065 ± 0.015	-0.011 ± 0.0042	-0.003 ± 0.0042	0.0005 ± 0.054	-0.008 ± 0.033	0.0225 ± 0.037	0.0105 ± 0.005	-0.012 ± 0.011	-0.0105 ± 0.005	0.022 ± 0.017	-0.0405 ± 0.021	-0.849 ± 0.028
LPS:M-CSF	-0.0505 ± 0.056	-0.014 ± 0.055	-0.0185 ± 0.057	-0.001 ± 0.042	-0.007 ± 0.014	-0.003 ± 0.035	-0.028 ± 0.024	-0.008 ± 0.018	-0.007 ± 0.038	0.0075 ± 0.011	0.009 ± 0.017	-0.0155 ± 0.036	0.008 ± 0.024	-0.015 ± 0.03	-0.0235 ± 0.025	-0.006 ± 0.025	-0.0015 ± 0.015	-0.0045 ± 0.018
LPS:CD62E/E-Selectin	0 ± 0.021	-0.018 ± 0.05	-0.006 ± 0.017	-0.006 ± 0.013	0.002 ± 0.0028	0.0075 ± 0.011	-0.009 ± 0.0028	0 ± 0.017	0.01	0.012 ± 0.02	0.0055 ± 0.033	0.0145 ± 0.033	-0.017 ± 0.03	-0.005 ± 0.033	0.008 ± 0.017	-0.0125 ± 0.016	-0.0115 ± 0.00071	-0.0205 ± 0.015
BE3C:CD87/uPAR	0.0055 ± 0.021	0.0075 ± 0.0021	-0.0045 ± 0.015	-0.003 ± 0.013	-0.0175 ± 0.019	0.0015 ± 0.005	-0.0275 ± 0.026	-0.049 ± 0.033	-0.05 ± 0.054	-0.016 ± 0.018	-0.017 ± 0.028	-0.0135 ± 0.022	0.0025 ± 0.0021	-0.0035 ± 0.012	0.008 ± 0.0099	0.0185 ± 0.03	0.05 ± 0.016	-0.554 ± 0.011
4H:SRB	0.009 ± 0.0042	0.0085 ± 0.0035	0 ± 0.0042	-0.0085 ± 0.0092	-0.003 ± 0.0071	0.0055 ± 0.0035	-0.0035 ± 0.005	0.0135 ± 0.026	-0.024 ± 0.021	-0.015 ± 0.0085	-0.003 ± 0.0042	-0.012 ± 0.027	-0.003 ± 0.0042	0.0005 ± 0.011	0.003 ± 0.042	-0.0015 ± 0.0064	0.003 ± 0.0099	-0.0055 ± 0.00071
LPS:SRB	-0.011 ± 0.0028	-0.0105 ± 0.00071	-0.0095 ± 0.00071	-0.0045 ± 0.0035	-0.0105 ± 0.0092	0.003	-0.019 ± 0.0085	0.001 ± 0.0028	-0.019 ± 0.0099	-0.0145 ± 0.0035	-0.005	-0.0105 ± 0.0092	-0.0005 ± 0.0035	-0.0025 ± 0.0092	0.006 ± 0.037	-0.002	0.01 ± 0.0071	0.003 ± 0.0042
LPS:CD141/Thrombomodulin	-0.033 ± 0.081	-0.018 ± 0.067	-0.0165 ± 0.012	-0.009	-0.012 ± 0.016	-0.008 ± 0.013	-0.0115 ± 0.03	0.002 ± 0.011	-0.035 ± 0.0099	0.0055 ± 0.016	-0.003 ± 0.03	-0.049 ± 0.013	-0.0055 ± 0.025	-0.0355 ± 0.021	-0.026 ± 0.034	-0.0025 ± 0.013	0.0035 ± 0.00071	0.002 ± 0.0057
LPS:CD69	-0.0125 ± 0.0064	-0.044 ± 0.035	-0.0165 ± 0.019	0.024 ± 0.035	0.02 ± 0.034	0.028 ± 0.028	-0.0095 ± 0.0035	-0.025	-0.057 ± 0.013	0.0005 ± 0.022	-0.003 ± 0.0014	0.012 ± 0.041	-0.045 ± 0.017	-0.0255 ± 0.036	0.002 ± 0.0071	-0.007 ± 0.0014	-0.03 ± 0.011	-0.048 ± 0.0099
BT:sIL-17A	-0.0275 ± 0.093	-0.102 ± 0.26	-0.155 ± 0.16	0.067 ± 0.13	-0.085 ± 0.02	-0.158 ± 0.033	0.047 ± 0.027	0.0865 ± 0.16	-0.0095 ± 0.22	0.0715 ± 0.032	-0.008 ± 0.064	-0.115 ± 0.03	0.0455 ± 0.064	-0.035 ± 0.038	-0.184 ± 0.0071	-0.0585 ± 0.17	-0.0525 ± 0.0092	-0.0075 ± 0.17
LPS:CD142/Tissue Factor	-0.0335 ± 0.011	0.0145 ± 0.023	0.009 ± 0.0028	-0.0205 ± 0.032	0.015 ± 0.033	0.0185 ± 0.0092	-0.0025 ± 0.005	-0.007 ± 0.013	0.0245 ± 0.005	0.013 ± 0.024	0.006 ± 0.0057	-0.019 ± 0.023	0.02 ± 0.095	0.005 ± 0.054	-0.0475 ± 0.073	-0.0245 ± 0.0064	0.018 ± 0.0085	-0.011 ± 0.0028
3C:CD87/uPAR	-0.0205 ± 0.00071	-0.0015 ± 0.019	-0.015 ± 0.028	-0.0265 ± 0.0092	-0.0065 ± 0.0092	0.0095 ± 0.0064	0.0015 ± 0.0021	-0.0115 ± 0.026	0.0045 ± 0.013	0.0035 ± 0.012	-0.002 ± 0.0042	0.009 ± 0.0042	-0.009 ± 0.023	-0.017 ± 0.025	-0.006 ± 0.0057	-0.003 ± 0.031	0.011 ± 0.02	-0.01 ± 0.02
